# In PubChem BioAssay AID288 (DTP/NCI, 2004):
# Records with an inconclusive call do not appear.
# System: BDF1 mice, M5076 sarcoma s.c., survival/tumor T/C
# Experiment: NCI In Vivo Anticancer Drug Screen. Data for tumor model Sarcoma M5076 (subcutaneous) in B6D2F1 (BDF1) mice
# Description: The antitumor activity of compounds was measured in mice bearing transplantable tumors. Survival or tumor size were measured and the results are expressed as the measurement made in the treated group (T) divided by the measurement made in the vehicle treated control group (C). The tumor model used in this assay is Sarcoma M5076 (subcutaneous) in B6D2F1 (BDF1) mice
# [1] = endpoint: median survival time, dose: 50.0 mg/kg/injection, schedule: Q01DX009 (ip), vehicle: saline with Tween-80, higher = longer survival
# [2] = endpoint: median survival time, dose: 100.0 mg/kg/injection, schedule: Q01DX009 (ip), vehicle: saline with Tween-80, higher = longer survival
# [3] = endpoint: median survival time, dose: 200.0 mg/kg/injection, schedule: Q01DX009 (ip), vehicle: saline with Tween-80, higher = longer survival
smiles,measurement,setting,value
c1cc2n(n1)CCN2,T/C,"endpoint: mean tumor weight, dose: 6.25 mg/kg/injection, schedule: Q02DX011 (ip), vehicle: saline, higher = larger tumour",122 % of control
same,T/C,"endpoint: mean tumor weight, dose: 12.5 mg/kg/injection, schedule: Q02DX011 (ip), vehicle: saline, higher = larger tumour",85 % of control
same,T/C,"endpoint: mean tumor weight, dose: 25.0 mg/kg/injection, schedule: Q02DX011 (ip), vehicle: saline, higher = larger tumour",103 % of control
same,T/C,"endpoint: median tumor weight (est.), dose: 6.25 mg/kg/injection, schedule: Q02DX011 (ip), vehicle: saline, higher = larger tumour",161 % of control
Cc1ccc(/C=C2\SC(=S)N(C3CC3)C2=O)cc1,T/C,[1],103 % of control
same,T/C,[2],94 % of control
same,T/C,[3],98 % of control
same,T/C,"endpoint: median tumor weight (est.), dose: 50.0 mg/kg/injection, schedule: Q01DX009 (ip), vehicle: saline with Tween-80, higher = larger tumour",105 % of control
same,T/C,"endpoint: median tumor weight (est.), dose: 100.0 mg/kg/injection, schedule: Q01DX009 (ip), vehicle: saline with Tween-80, higher = larger tumour",80 % of control
same,T/C,"endpoint: median tumor weight (est.), dose: 200.0 mg/kg/injection, schedule: Q01DX009 (ip), vehicle: saline with Tween-80, higher = larger tumour",93 % of control
COC(=O)C[C@](O)(CCCC(C)(C)O)C(=O)O[C@@H]1C(OC)=C[C@]23CCCN2CCc2cc4c(cc2[C@H]13)OCO4,T/C,"endpoint: mean tumor weight, dose: 0.5 mg/kg/injection, schedule: Q02DX011 (ip), vehicle: saline, higher = larger tumour",114 % of control
same,T/C,"endpoint: mean tumor weight, dose: 2.0 mg/kg/injection, schedule: Q02DX011 (ip), vehicle: saline, higher = larger tumour",37 % of control
same,T/C,"endpoint: median tumor weight (est.), dose: 0.5 mg/kg/injection, schedule: Q02DX011 (ip), vehicle: saline, higher = larger tumour",77 % of control
same,T/C,"endpoint: median tumor weight (est.), dose: 2.0 mg/kg/injection, schedule: Q02DX011 (ip), vehicle: saline, higher = larger tumour",34 % of control
CS(=O)(=O)c1ncc(Br)cn1,T/C,"endpoint: median survival time, dose: 25.0 mg/kg/injection, schedule: Q04DX003 (ip), vehicle: saline with Tween-80, higher = longer survival",100 % of control
same,T/C,"endpoint: median survival time, dose: 50.0 mg/kg/injection, schedule: Q04DX003 (ip), vehicle: saline with Tween-80, higher = longer survival",84 % of control
same,T/C,"endpoint: median survival time, dose: 100.0 mg/kg/injection, schedule: Q04DX003 (ip), vehicle: saline with Tween-80, higher = longer survival",99 % of control
same,T/C,"endpoint: median survival time, dose: 200.0 mg/kg/injection, schedule: Q04DX003 (ip), vehicle: saline with Tween-80, higher = longer survival",91 % of control
Nc1n[n+](-c2ccc(Cl)cc2)no1,T/C,"endpoint: median survival time, dose: 25.0 mg/kg/injection, schedule: Q04DX003 (ip), vehicle: water, higher = longer survival",99 % of control
same,T/C,"endpoint: median survival time, dose: 50.0 mg/kg/injection, schedule: Q04DX003 (ip), vehicle: water, higher = longer survival",100 % of control
O=NN(CCCl)C(=O)NC1CCCCC1,T/C,"endpoint: median survival time, dose: 2.0 mg/kg/injection, schedule: Q04DX006 (ip), vehicle: saline with Tween-80, higher = longer survival",117 % of control
same,T/C,"endpoint: median survival time, dose: 3.0 mg/kg/injection, schedule: Q01DX009 (ip), vehicle: Klucel (hydroxypropylcellulose) (HPC), higher = longer survival",168 % of control
same,T/C,"endpoint: median survival time, dose: 4.0 mg/kg/injection, schedule: Q02DX033 (ip), vehicle: saline with Tween-80, higher = longer survival",250 % of control
same,T/C,"endpoint: median survival time, dose: 4.0 mg/kg/injection, schedule: Q04DX006 (ip), vehicle: saline with Tween-80, higher = longer survival",120 % of control
same,T/C,"endpoint: median survival time, dose: 6.0 mg/kg/injection, schedule: Q01DX009 (ip), vehicle: Klucel (hydroxypropylcellulose) (HPC), higher = longer survival",215 % of control
same,T/C,"endpoint: median survival time, dose: 8.0 mg/kg/injection, schedule: Q02DX033 (ip), vehicle: saline with Tween-80, higher = longer survival",255 % of control
same,T/C,"endpoint: median survival time, dose: 8.0 mg/kg/injection, schedule: Q04DX006 (ip), vehicle: saline with Tween-80, higher = longer survival",183 % of control
same,T/C,"endpoint: median survival time, dose: 12.0 mg/kg/injection, schedule: Q01DX009 (ip), vehicle: Klucel (hydroxypropylcellulose) (HPC), higher = longer survival",215 % of control
same,T/C,"endpoint: median survival time, dose: 16.0 mg/kg/injection, schedule: Q04DX006 (ip), vehicle: saline with Tween-80, higher = longer survival",241 % of control
same,T/C,"endpoint: median tumor weight (est.), dose: 1.5 mg/kg/injection, schedule: Q01DX009 (ip), vehicle: Klucel (hydroxypropylcellulose) (HPC), higher = larger tumour",10 % of control
CCC(C)C(NS(=O)(=O)c1ccc(C)cc1)C(=O)O (stereo not drawn),T/C,[1],87 % of control
same,T/C,[2],92 % of control
same,T/C,[3],92 % of control
